In brackets after ≈: the same amount, converted by molar mass. Read-outs that look alike come from different tables or passages of the source.
Tests used:
S. aureus RN4220 = experiment: microbe, parasite or virus in culture; format: cell-based; conditions: for MIC: Staphylococcus aureus
S. aureus MetS = S. aureus MetS (Staphylococcus aureus, UniProt P67579); experiment: biochemical
S. aureus [1] = experiment: microbe, parasite or virus in culture; format: cell-based; conditions: Staphylococcus aureus
H influenzae MetG = H influenzae MetG (Haemophilus influenzae, UniProt P43828); experiment: biochemical
S. aureus mutants = experiment: microbe, parasite or virus in culture; format: cell-based; conditions: Staphylococcus aureus, ATCC43300
S. pneumoniae MetS2 = S. pneumoniae MetS2 (Streptococcus pneumoniae, UniProt A2MSJ4); experiment: biochemical
E. coli MetG = E. coli MetG (Escherichia coli, UniProt P00959); experiment: biochemical
S. aureus [2] = experiment: microbe, parasite or virus in culture; format: cell-based; conditions: for MIC: Staphylococcus aureus
[3] = system: staphylococci and streptococci; experiment: organism not typed; format: cell-based
S. aureus [4] = format: cell-based
staphylococci = conditions: cited from earlier work
[5] = RN4220, pYH4 vector control, +aTc inducer
[6] = RN4220, pYH4 vector control, −aTc inducer
[7] = ATCC 29213 / MSSA, read-out: MIC After 20 passages, S. aureus ATCC29213, MSSA, MupS
[8] = ATCC 29213 / MSSA, read-out: MIC Initial, S. aureus ATCC29213, MSSA, MupS
[9] = ATCC 43300 / MRSA, read-out: MIC After 20 passages, S. aureus ATCC43300, MRSA, MupS
[10] = MRSA / NRS 103, read-out: MIC After 20 passages, S. aureus NRS103, MRSA, MupS
[11] = MRSA / NRS 103, read-out: MIC Initial, S. aureus NRS103, MRSA, MupS
[12] = MRSA, read-out: MIC After 20 passages, S. aureus 10-420, MRSA, HL-MupR
[13] = MRSA, read-out: MIC After 20 passages, S. aureus 25-670, MRSA, HL-MupR
[14] = MRSA, read-out: MIC After 20 passages, S. aureus 31-1334, MRSA, LL-MupR
[15] = MRSA, read-out: MIC After 20 passages, S. aureus 87-2797, MRSA, HL-MupR
[16] = MRSA, read-out: MIC After 20 passages, S. aureus 1079077, MRSA, MupS
[17] = MRSA, read-out: MIC After 20 passages, S. aureus LZ1, MRSA, HL-MupR
[18] = MRSA, read-out: MIC After 20 passages, S. aureus LZ6, MRSA, HL-MupR
[19] = MRSA, read-out: MIC After 20 passages, S. aureus LZ10, MRSA, MupS
[20] = MRSA, read-out: MIC Initial, S. aureus 10-420, MRSA, HL-MupR
[21] = MRSA, read-out: MIC Initial, S. aureus 25-670, MRSA, HL-MupR
[22] = MRSA, read-out: MIC Initial, S. aureus 31-1334, MRSA, LL-MupR
[23] = MRSA, read-out: MIC Initial, S. aureus 87-2797, MRSA, HL-MupR
[24] = MRSA, read-out: MIC Initial, S. aureus 1079077, MRSA, MupS
[25] = MRSA, read-out: MIC Initial, S. aureus LZ1, MRSA, HL-MupR
[26] = MRSA, read-out: MIC Initial, S. aureus LZ6, MRSA, HL-MupR
[27] = MRSA, read-out: MIC Initial, S. aureus LZ10, MRSA, MupS
[28] = MSSA / NRS 107, read-out: MIC After 20 passages, S. aureus NRS107, MSSA, HL-MupR
[29] = MSSA / NRS 107, read-out: MIC Initial, S. aureus NRS107, MSSA, HL-MupR
[30] = MSSA, read-out: MIC After 20 passages, S. aureus 1079101, MSSA, HL-MupR
[31] = MSSA, read-out: MIC Initial, S. aureus 1079101, MSSA, HL-MupR
[32] = 1079077 (MRSA), 10^10 CFU, five days
[33] = ATCC 29213 (MSSA), 10^10 CFU, five days
[34] = ATCC 43300 (MRSA), 10^10 CFU, five days
[35] = LZ10 (MRSA), 10^10 CFU, five days
[36] = S. aureus, including MSSA and MRSA strains

S. pneumoniae MetS2, sequence (A2MSJ4 1-545): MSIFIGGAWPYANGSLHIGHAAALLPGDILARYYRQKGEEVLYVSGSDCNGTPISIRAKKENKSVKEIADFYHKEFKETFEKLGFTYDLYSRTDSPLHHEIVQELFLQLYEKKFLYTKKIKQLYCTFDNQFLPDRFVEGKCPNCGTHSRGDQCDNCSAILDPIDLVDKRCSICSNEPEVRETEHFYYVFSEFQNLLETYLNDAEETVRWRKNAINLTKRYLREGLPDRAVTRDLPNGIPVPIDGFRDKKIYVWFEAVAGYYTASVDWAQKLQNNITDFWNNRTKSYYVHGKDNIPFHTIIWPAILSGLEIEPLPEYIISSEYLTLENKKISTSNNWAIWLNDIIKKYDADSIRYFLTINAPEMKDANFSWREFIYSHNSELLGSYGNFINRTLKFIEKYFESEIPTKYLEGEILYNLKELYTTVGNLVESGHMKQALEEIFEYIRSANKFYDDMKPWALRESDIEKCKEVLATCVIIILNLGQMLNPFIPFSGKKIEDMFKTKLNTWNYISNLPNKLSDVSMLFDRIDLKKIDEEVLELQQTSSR
S. aureus MetS, sequence (P67579 whole entry): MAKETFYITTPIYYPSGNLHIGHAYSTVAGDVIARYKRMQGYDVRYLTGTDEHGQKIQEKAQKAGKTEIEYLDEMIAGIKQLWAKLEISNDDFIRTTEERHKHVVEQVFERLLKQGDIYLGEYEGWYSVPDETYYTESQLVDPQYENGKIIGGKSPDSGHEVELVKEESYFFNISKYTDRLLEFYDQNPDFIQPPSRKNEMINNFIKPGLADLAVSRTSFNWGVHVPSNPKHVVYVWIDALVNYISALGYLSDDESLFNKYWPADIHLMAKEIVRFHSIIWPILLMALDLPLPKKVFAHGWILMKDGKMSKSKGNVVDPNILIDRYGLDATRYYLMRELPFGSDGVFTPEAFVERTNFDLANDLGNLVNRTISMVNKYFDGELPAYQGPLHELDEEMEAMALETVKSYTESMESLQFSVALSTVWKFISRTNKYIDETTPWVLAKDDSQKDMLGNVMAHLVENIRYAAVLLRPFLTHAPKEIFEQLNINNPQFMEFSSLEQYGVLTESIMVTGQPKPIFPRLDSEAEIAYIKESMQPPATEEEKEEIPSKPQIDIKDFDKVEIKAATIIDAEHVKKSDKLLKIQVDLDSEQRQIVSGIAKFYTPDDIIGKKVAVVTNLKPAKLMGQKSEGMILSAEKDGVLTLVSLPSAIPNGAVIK
H influenzae MetG, sequence (P43828 whole entry): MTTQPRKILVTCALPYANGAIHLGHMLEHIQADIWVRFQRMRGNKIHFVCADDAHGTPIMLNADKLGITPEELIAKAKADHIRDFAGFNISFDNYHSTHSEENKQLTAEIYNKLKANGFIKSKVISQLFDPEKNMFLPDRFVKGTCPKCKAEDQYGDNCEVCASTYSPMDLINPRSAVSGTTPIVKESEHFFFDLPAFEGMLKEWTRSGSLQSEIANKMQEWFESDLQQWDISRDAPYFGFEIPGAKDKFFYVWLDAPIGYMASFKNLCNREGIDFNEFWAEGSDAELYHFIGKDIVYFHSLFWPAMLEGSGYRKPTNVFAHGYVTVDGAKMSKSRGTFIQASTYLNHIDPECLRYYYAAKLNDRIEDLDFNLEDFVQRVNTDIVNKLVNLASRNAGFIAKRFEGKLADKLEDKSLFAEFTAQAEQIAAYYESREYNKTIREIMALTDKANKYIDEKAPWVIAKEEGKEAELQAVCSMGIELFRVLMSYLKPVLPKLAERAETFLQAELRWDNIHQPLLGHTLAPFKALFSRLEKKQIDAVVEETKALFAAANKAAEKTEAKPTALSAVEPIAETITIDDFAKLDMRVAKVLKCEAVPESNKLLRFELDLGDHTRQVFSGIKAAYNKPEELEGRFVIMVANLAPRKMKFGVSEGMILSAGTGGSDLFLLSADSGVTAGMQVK
E. coli MetG, sequence (P00959 whole entry, looked up): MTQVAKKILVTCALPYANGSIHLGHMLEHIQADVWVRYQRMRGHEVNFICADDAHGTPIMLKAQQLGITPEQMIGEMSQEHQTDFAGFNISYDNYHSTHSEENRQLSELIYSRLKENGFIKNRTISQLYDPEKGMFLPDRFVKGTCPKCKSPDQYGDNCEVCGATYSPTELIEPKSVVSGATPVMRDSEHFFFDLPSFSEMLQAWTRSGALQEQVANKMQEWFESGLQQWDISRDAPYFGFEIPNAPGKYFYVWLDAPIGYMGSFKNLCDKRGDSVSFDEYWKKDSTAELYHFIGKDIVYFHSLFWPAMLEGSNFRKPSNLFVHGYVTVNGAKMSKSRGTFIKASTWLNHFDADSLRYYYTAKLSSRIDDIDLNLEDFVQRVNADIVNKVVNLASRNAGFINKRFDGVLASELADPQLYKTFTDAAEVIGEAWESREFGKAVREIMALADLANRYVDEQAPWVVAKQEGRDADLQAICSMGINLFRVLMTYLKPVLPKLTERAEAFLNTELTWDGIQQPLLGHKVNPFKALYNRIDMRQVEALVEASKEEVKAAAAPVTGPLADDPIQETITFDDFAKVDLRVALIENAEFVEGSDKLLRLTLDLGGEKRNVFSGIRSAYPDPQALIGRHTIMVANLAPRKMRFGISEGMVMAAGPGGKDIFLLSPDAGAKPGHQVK

## CN[C@H](CC(C)C)C(=O)N[C@H]1C(=O)N[C@@H](CC(N)=O)C(=O)N[C@H]2C(=O)N[C@H]3C(=O)N[C@H](C(=O)N[C@H](C(=O)O)c4cc(O)cc(O)c4-c4cc3ccc4O)[C@H](O)c3ccc(c(Cl)c3)Oc3cc2cc(c3O[C@@H]2O[C@H](CO)[C@@H](O)[C@H](O)[C@H]2O[C@H]2C[C@](C)(N)[C@H](O)[C@H](C)O2)Oc2ccc(cc2Cl)[C@H]1O [Vancomycin]
S. aureus RN4220
  MIC change upon MRS overexpression: remained unchanged
S. aureus RN4220; RN4220, pYH4-MRS, +aTc inducer
  MIC: 0.5 µg/mL (≈ 0.345 µM)
S. aureus RN4220; RN4220, pYH4-MRS, −aTc inducer
  MIC: 0.5 µg/mL (≈ 0.345 µM)
S. aureus RN4220; [5]
  MIC: 1 µg/mL (≈ 0.69 µM)
S. aureus RN4220; [6]
  MIC: 1 µg/mL (≈ 0.69 µM)

## CO[C@@H]1[C@@H](OC(N)=O)[C@@H](O)[C@H](Oc2ccc3c(O)c(NC(=O)c4ccc(O)c(CC=C(C)C)c4)c(=O)oc3c2C)OC1(C)C [Novobiocin]
S. aureus RN4220
  MIC change upon MRS overexpression: remained unchanged
S. aureus RN4220; RN4220, pYH4-MRS, +aTc inducer
  MIC: 0.25 µg/mL (≈ 0.408 µM)
S. aureus RN4220; RN4220, pYH4-MRS, −aTc inducer
  MIC: 0.25 µg/mL (≈ 0.408 µM)
S. aureus RN4220; [5]
  MIC: 0.25 µg/mL (≈ 0.408 µM)
S. aureus RN4220; [6]
  MIC: 0.25 µg/mL (≈ 0.408 µM)

## C=C(F)c1sc(CNCCCNc2cc(=O)c3ccccc3[nH]2)c(C)c1Br [Compound 1, N-(4-bromo-5-(1-fluorovinyl)-3-methylthiophen-2-ylmethyl)-N′-(1H-quinolin-4-one)propane-1,3-diamine]
S. aureus MetS
  IC50: < 1.9 nM
S. aureus [1]; [7]
  MIC: 4 µg/mL (≈ 8.88 µM)
S. aureus [1]; [8]
  MIC: 0.06 µg/mL (≈ 0.133 µM)
S. aureus [1]; [9]
  MIC: 1 µg/mL (≈ 2.22 µM)
S. aureus [1]; [10]
  MIC: 1 µg/mL (≈ 2.22 µM)
S. aureus [1]; [11]
  MIC: 0.12 µg/mL (≈ 0.266 µM)
S. aureus [1]; [12]
  MIC: 8 µg/mL (≈ 17.8 µM)
S. aureus [1]; [13]
  MIC: 8 µg/mL (≈ 17.8 µM)
S. aureus [1]; [14]
  MIC: 8 µg/mL (≈ 17.8 µM)
S. aureus [1]; [15]
  MIC: 16 µg/mL (≈ 35.5 µM)
S. aureus [1]; [16]
  MIC: 16 µg/mL (≈ 35.5 µM)
S. aureus [1]; [17]
  MIC: 0.06 µg/mL (≈ 0.133 µM)
S. aureus [1]; [18]
  MIC: 2 µg/mL (≈ 4.44 µM)
S. aureus [1]; [19]
  MIC: 0.5 µg/mL (≈ 1.11 µM)
S. aureus [1]; [20]
  MIC: 0.06 µg/mL (≈ 0.133 µM)
S. aureus [1]; [21]
  MIC: 0.06 µg/mL (≈ 0.133 µM)
S. aureus [1]; [22]
  MIC: 0.03 µg/mL (≈ 0.0666 µM)
S. aureus [1]; [23]
  MIC: 0.03 µg/mL (≈ 0.0666 µM)
S. aureus [1]; [24]
  MIC: 0.25 µg/mL (≈ 0.555 µM)
S. aureus [1]; [25]
  MIC: 0.06 µg/mL (≈ 0.133 µM)
S. aureus [1]; [26]
  MIC: 0.06 µg/mL (≈ 0.133 µM)
S. aureus [1]; [27]
  MIC: 0.03 µg/mL (≈ 0.0666 µM)
S. aureus [1]; [28]
  MIC: 0.5 µg/mL (≈ 1.11 µM)
S. aureus [1]; [29]
  MIC: 0.015 µg/mL (≈ 0.0333 µM)
S. aureus [1]; [30]
  MIC: 16 µg/mL (≈ 35.5 µM)
S. aureus [1]; [31]
  MIC: 0.06 µg/mL (≈ 0.133 µM)
H influenzae MetG
  IC50: 25 nM
S. aureus mutants
  MIC: 2 µg/mL (≈ 4.44 µM)
S. pneumoniae MetS2
  IC50: > 500 nM
E. coli MetG
  IC50: 307 nM
S. aureus [2]
  initial MIC range: 0.03 to 0.5 µg/mL
  MIC: 0.5 µg/mL (≈ 1.11 µM)
S. aureus [2]; ATCC 29213 / MSSA
  MIC: 0.03 µg/mL (≈ 0.0666 µM)
S. aureus [2]; ATCC 43300 / MRSA
  MIC: 0.06 µg/mL (≈ 0.133 µM)
[3]; strains of Table 4
  MIC range after twenty serial passages: 0.06 to 16 µg/mL
[3]; strains of Table 4, before passages
  MIC initial range: 0.015 to 0.06 µg/mL
S. aureus [4]; [32]
  MPC: 32 µg/mL
S. aureus [4]; [33]
  MPC: 32 µg/mL
S. aureus [4]; [34]
  MPC: 32 µg/mL
S. aureus [4]; [35]
  MPC: 32 µg/mL
S. aureus [4]; [36]
  MPC: 32 µg/mL
S. aureus RN4220; RN4220 (pYH4-MRS)
  shift in the MIC upon induction of MRS expression: 8 fold
S. aureus RN4220; RN4220, pYH4-MRS, +aTc inducer
  MIC: 1 µg/mL (≈ 2.22 µM)
S. aureus RN4220; RN4220, pYH4-MRS, −aTc inducer
  MIC: 0.12 µg/mL (≈ 0.266 µM)
S. aureus RN4220; [5]
  MIC: 0.008 µg/mL (≈ 0.0178 µM)
S. aureus RN4220; [6]
  MIC: 0.008 µg/mL (≈ 0.0178 µM)

## C/C(=C\C(=O)OCCCCCCCCC(=O)O)C[C@@H]1OC[C@H](C[C@@H]2O[C@H]2[C@@H](C)[C@H](C)O)[C@@H](O)[C@H]1O [Mupirocin]
S. aureus [1]; [7]
  MIC: 0.5 µg/mL (≈ 0.999 µM)
S. aureus [1]; [8]
  MIC: 0.06 µg/mL (≈ 0.12 µM)
S. aureus [1]; [9]
  MIC: 8 µg/mL (≈ 16 µM)
S. aureus [1]; ATCC 43300 / MRSA, read-out: MIC Initial, S. aureus ATCC43300, MRSA, MupS
  MIC: 0.06 µg/mL (≈ 0.12 µM)
S. aureus [1]; [10]
  MIC: 1 µg/mL (≈ 2 µM)
S. aureus [1]; [11]
  MIC: 0.25 µg/mL (≈ 0.499 µM)
S. aureus [1]; [12]
  MIC: 4100 µg/mL (≈ 8180 µM)
S. aureus [1]; [13]
  MIC: 4100 µg/mL (≈ 8180 µM)
S. aureus [1]; [14]
  MIC: 128 µg/mL (≈ 256 µM)
S. aureus [1]; [15]
  MIC: 4100 µg/mL (≈ 8180 µM)
S. aureus [1]; [16]
  MIC: 1 µg/mL (≈ 2 µM)
S. aureus [1]; [17]
  MIC: 4100 µg/mL (≈ 8180 µM)
S. aureus [1]; [18]
  MIC: 4100 µg/mL (≈ 8180 µM)
S. aureus [1]; [19]
  MIC: 2 µg/mL (≈ 3.99 µM)
S. aureus [1]; [20]
  MIC: 4100 µg/mL (≈ 8180 µM)
S. aureus [1]; [21]
  MIC: 2050 µg/mL (≈ 4090 µM)
S. aureus [1]; [22]
  MIC: 32 µg/mL (≈ 63.9 µM)
S. aureus [1]; [23]
  MIC: 2050 µg/mL (≈ 4090 µM)
S. aureus [1]; [24]
  MIC: 0.5 µg/mL (≈ 0.999 µM)
S. aureus [1]; [25]
  MIC: 4100 µg/mL (≈ 8180 µM)
S. aureus [1]; [26]
  MIC: 4100 µg/mL (≈ 8180 µM)
S. aureus [1]; [27]
  MIC: 0.25 µg/mL (≈ 0.499 µM)
S. aureus [1]; [28]
  MIC: 4100 µg/mL (≈ 8180 µM)
S. aureus [1]; [29]
  MIC: 4100 µg/mL (≈ 8180 µM)
S. aureus [1]; [30]
  MIC: 4100 µg/mL (≈ 8180 µM)
S. aureus [1]; [31]
  MIC: 4100 µg/mL (≈ 8180 µM)
S. aureus [2]; ATCC 29213 / MSSA
  MIC: 0.12 µg/mL (≈ 0.24 µM)
S. aureus [2]; ATCC 43300 / MRSA
  MIC: 0.12 µg/mL (≈ 0.24 µM)
[3]; mupirocin-susceptible strains
  MIC range after 20 passages: 0.5 to 8 µg/mL
  MIC range initial: 0.06 to 0.5 µg/mL
[3]; read-out: MIC after 20 passages
  MIC: 128 µg/mL (≈ 256 µM)
[3]; read-out: MIC initial
  MIC: 32 µg/mL (≈ 63.9 µM)
S. aureus [4]; [32]
  MPC: >32 µg/mL
S. aureus [4]; [33]
  MPC: 32 µg/mL
S. aureus [4]; [34]
  MPC: 32 µg/mL
S. aureus [4]; [35]
  MPC: >32 µg/mL
S. aureus [4]; [36]
  MPC: ≥ 32 µg/mL
staphylococci; high-level mupirocin resistance
  MIC: > 256 µg/mL
staphylococci; low-level mupirocin resistance
  MIC: 8 to 256 µg/mL
S. aureus RN4220
  MIC change upon MRS overexpression: remained unchanged
S. aureus RN4220; RN4220, pYH4-MRS, +aTc inducer
  MIC: 0.06 µg/mL (≈ 0.12 µM)
S. aureus RN4220; RN4220, pYH4-MRS, −aTc inducer
  MIC: 0.06 µg/mL (≈ 0.12 µM)
S. aureus RN4220; [5]
  MIC: 0.06 µg/mL (≈ 0.12 µM)
S. aureus RN4220; [6]
  MIC: 0.06 µg/mL (≈ 0.12 µM)
